Measurements from patent publication US11400106B2, “Methods for inhibiting microbe growth” (priority 2018, dated 2022).
Like-named read-outs stand apart in the source and are kept apart here. Where a SMILES comes first, the peptide text is derived from it.

Legend:
E. coli = test: microbe, parasite or virus in culture; format: cell-based, Escherichia coli; conditions: for MIC: Escherichia coli
Procedure: (§1) In the following experiments, bacterial cells were cultured in 96-well microtiter plates in cation-adjusted Mueller-Hinton Broth (MHB) for 18 h at 37° C. The main strains used were E. coli (K-12 BW25113) (placed in stationary incubator) and S. aureus (Newman Strain) (incubated at 250 r.p.m). Knockout strains (ΔtolcC and ΔychM) were used from the Keio knockout collection (Baba et al., Construction of Escherichia coli K-12 in-frame, single-gene knockout mutants: the Keio collection. Mol Syst Biol 2, 2006 0008, doi:10.1038/msb4100050 (2006)). For MIC determination and checkerboard analyses, Clinical & Laboratory Standards Institute (CLSI) protocol was used. […] DiSC3 loading of S. aureus cells was performed as previously described (Farha et al., Collapsing the proton motive force to identify synergistic combinations against Staphylococcus aureus. Chemistry & biology 20, 1168-1178, doi:10.1016/j.chembiol.2013.07.006 (2013)). CCCP concentration of 20 μM was used. pH adjustments were made by addition of HCl or NaOH. INT assay and ATP bioluminescence assays were performed as previously described (Farha et al., Collapsing the proton motive force to identify synergistic combinations against Staphylococcus aureus. Chemistry & biology 20, 1168-1178, doi:10.1016/j.chembiol.2013.07.006 (2013)). For chemical-genomic studies, the Keio library was grown overnight in cation-adjusted MHB broth, in 384-well plates. From these, treatment plates (25 mM sodium bicarbonate, or a sterile water control) were inoculated and grown for 15 hours at 37° C., in a stationary incubator. Data was normalized according to Mangat et al (Mangat et al., Rank ordering plate data facilitates data visualization and normalization in high-throughput screening. J Biomol Screen 19, 1314-1320, doi:10.1177/1087057114534298 (2014)), with gene products and GO terms mined from EcoCyc. The GFP promoter library (Keseler et al., EcoCyc: fusing model organism databases with systems biology. Nucleic Acids Res 41, D605-612, doi:10.1093/nar/gks1027 (2013)) was grown for 18 hours at ambient temperature with the same inoculation strategy as with the Keio collection. The analysis pipeline of Zaslaver et al (Zaslaver et al., A comprehensive library of fluorescent transcriptional reporters for Escherichia coli. Nat Methods 3, 623-628, doi:10.1038/nmeth895 (2006)) was used to generate maps of promoter activity, from which lists of promoters with increased or decreased activity were compiled.
(§2) Fold enhancement in MICs in the media supplemented with sodium bicarbonate is represented by a positive fold, whereas suppression of activity is represented by a negative fold.
(§3) The effect of sodium bicarbonate on the activity of additional antibacterial agents was investigated. Clinical isolates of various bacteria were obtained from the ATCC and the IHMA.
(§4) The effect of sodium bicarbonate on the activity of cationic antiseptic agents was investigated. Clinical isolates of various bacteria were obtained from the ATCC and the IHMA.

S. aureus = test: microbe, parasite or virus in culture; conditions: for MIC: Staphylococcus aureus, 18 h, read-out: MIC, S. aureus, MHB−; for Fold, S. aureus: fold shift in MIC
Procedure: as §1, §2, §3, §4

[1] = 18 h, MHB in the absence of sodium bicarbonate, read-out: MIC, E. coli, MHB−
[2] = 18 h, antibiotic agents, MHB in the absence of sodium bicarbonate, read-out: MIC, E. coli, MHB−
[3] = antiseptic agents, MHB in the absence of sodium bicarbonate
[4] = antiseptic agents, MHB in the presence of 25 mM sodium bicarbonate
[5] = antibiotic agents, MHB in the absence of sodium bicarbonate
[6] = antibiotic agents, MHB in the presence of 25 mM sodium bicarbonate
[7] = antibiotic agents, fold shift in MIC, MHB− vs MHB+
[8] = antibiotic agents, MHB− vs MHB+
[9] = S. aureus (Newman strain) (MSSA)

| Compound | MIC (E. coli; [1]) | MIC, S. aureus, MHB+ (S. aureus) | MIC (S. aureus) | MIC, E. coli, MHB+ (E. coli) | also measured |
| --- | --- | --- | --- | --- | --- |
| CC[C@H](C)[C@H](N)C1=N[C@H](C(=O)N[C@@H](CC(C)C)C(=O)N[C@H](CCC(=O)O)C(=O)N[C@H](C(=O)N[C@H]2CCCCNC(=O)[C@H](CC(N)=O)NC(=O)[C@@H](CC(=O)O)NC(=O)[C@H](Cc3cnc[nH]3)NC(=O)[C@@H](Cc3ccccc3)NC(=O)[C@H]([C@@H](C)CC)NC(=O)[C@@H](CCCN)NC2=O)[C@@H](C)CC)CS1 [Bacitracin] (HELM PEPTIDE1{[CC[C@H](C)[C@H](N)C1=N[C@H](C(=O)[*:2])CS1].L.[dE].I.K.[NCCC[C@@H](N[*:1])C(=O)[*:2]].I.[dF].H.[dD].N}$PEPTIDE1,PEPTIDE1,5:R3-11:R2$$$V2.0) | > 256 µg/mL | 64 | 32 µg/mL |  |  |
| NC[C@H]1O[C@H](O[C@H]2[C@H](O)[C@@H](O[C@H]3O[C@H](CO)[C@@H](O)[C@H](N)[C@H]3O)[C@H](N)C[C@@H]2N)[C@H](N)C[C@@H]1O [Tobramycin] |  | 0.5 μg of antimicrobial agent/mL of buffer | 0.25 µg/mL | 0.25 μg of antimicrobial agent/mL of buffer | MIC (E. coli; [2]): 0.25 µg/mL |
| CO/N=C(\C(=O)N[C@@H]1C(=O)N2C(C(=O)O)=C(CSc3nc(=O)c(=O)[nH]n3C)CS[C@H]12)c1csc(N)n1 [Ceftriaxone] | 0.625 µg/mL | 16 | 4 µg/mL |  |  |
| CC1(C)S[C@@H]2[C@H](NC(=O)[C@H](N)c3ccc(O)cc3)C(=O)N2[C@H]1C(=O)O [Amoxicillin] |  | 1 | 0.25 µg/mL |  | MIC (E. coli; 18 h, read-out: MIC, E. coli, MHB−): 8 µg/mL |
| N=C(N)c1ccc(OCCCOc2ccc(C(=N)N)cc2Br)c(Br)c1.O=S(=O)(O)CCO.O=S(=O)(O)CCO [Dibrompropamidine diisetionate] |  |  |  |  | MIC, E. coli, MHB (E. coli; [3]): 64 μg of antimicrobial agent/mL of buffer; MIC, E. coli, MHB+ (E. coli; [4]): 16 μg of antimicrobial agent/mL of buffer; Fold, E. coli (E. coli; antiseptic agents, fold shift in MIC): 4; MIC, S. aureus, MHB (S. aureus; [3]): 4 μg of antimicrobial agent/mL of buffer; MIC, S. aureus, MHB+ (S. aureus; [4]): 1 μg of antimicrobial agent/mL of buffer; Fold, S. aureus (S. aureus; antiseptic agents): 4 |
| Nisin |  |  |  |  | MIC, E. coli, MHB− (E. coli; [5]): >128 μg of antimicrobial agent/mL of buffer; MIC, E. coli, MHB+ (E. coli; [6]): >128 μg of antimicrobial agent/mL of buffer; Fold, E. coli (E. coli; [7]): 1; MIC, S. aureus, MHB− (S. aureus; [5]): >128 μg of antimicrobial agent/mL of buffer; MIC, S. aureus, MHB+ (S. aureus; [6]): >128 μg of antimicrobial agent/mL of buffer; Fold, S. aureus (S. aureus; [8]): 1 |
| N[C@@H]1CCCCN(c2c(F)cc3c(=O)c(C(=O)O)cn(C4CC4)c3c2Cl)C1 [Besifloxacin] | 0.25 µg/mL | 0.25 | 0.125 µg/mL |  | effect of 25 mM sodium bicarbonate on antibacterial activity (E. coli): increased |
| CC[C@H]1OC(=O)[C@H](C)[C@@H](O[C@H]2C[C@@](C)(OC)[C@@H](O)[C@H](C)O2)[C@H](C)[C@@H](O[C@@H]2O[C@H](C)C[C@H](N(C)C)[C@H]2O)[C@](C)(OC)C[C@@H](C)C(=O)[C@H](C)[C@@H](O)[C@]1(C)O [Clarithromycin] |  | 0.062 μg of antimicrobial agent/mL of buffer | 0.5 µg/mL | 8 μg of antimicrobial agent/mL of buffer | MIC (E. coli; [2]): 64 µg/mL |
| C[C@H]1c2cccc(O)c2C(=O)C2=C(O)[C@]3(O)C(=O)C(C(N)=O)=C(O)[C@@H](N(C)C)[C@@H]3[C@@H](O)[C@@H]21 [Doxycycline] | 1 µg/mL | 2 | 0.125 µg/mL |  |  |
| CCn1cc(C(=O)O)c(=O)c2cc(F)c(N3CCNC(C)C3)c(F)c21 (stereo not shown) [Lomefloxacin] |  | 8 μg of antimicrobial agent/mL of buffer | 4 µg/mL | 0.125 μg of antimicrobial agent/mL of buffer | MIC (E. coli; [2]): 0.5 µg/mL |
| NC(=O)c1ccccc1 [Benzamide] |  | >128 μg of antimicrobial agent/mL of buffer | > 128 µg/mL | >128 μg of antimicrobial agent/mL of buffer | MIC (E. coli; [2]): > 128 µg/mL |
| C[C@H]1COc2c(N3CCN(C)CC3)c(F)cc3c(=O)c(C(=O)O)cn1c23 [Levofloxacin] | 0.0313 µg/mL | 1 | 0.5 µg/mL |  |  |
| CCCCCCCCCCCCCCCC[N+](C)(C)C.[Br-] [Hexadecyltrimethylammonium bromide] |  | 0.25 μg of antimicrobial agent/mL of buffer |  | 8 μg of antimicrobial agent/mL of buffer | MIC, E. coli, MHB (E. coli): 32 μg of antimicrobial agent/mL of buffer; MIC, S. aureus, MHB (S. aureus): 0.5 μg of antimicrobial agent/mL of buffer |
| NC[C@@H]1O[C@H](O[C@H]2[C@@H](O)[C@H](O[C@@H]3[C@@H](O)[C@H](N)C[C@H](N)[C@H]3O[C@H]3O[C@H](CO)[C@@H](O)[C@H](O)[C@H]3N)O[C@@H]2CO)[C@H](N)[C@@H](O)[C@@H]1O [Paromomycin] | 2 µg/mL | 2 | 2 µg/mL |  |  |
| Furadinozoline |  |  |  |  | MIC, E. coli, MHB− (E. coli; [5]): 4 μg of antimicrobial agent/mL of buffer; MIC, E. coli, MHB+ (E. coli; [6]): 4 μg of antimicrobial agent/mL of buffer; Fold, E. coli (E. coli; [7]): 1; MIC, S. aureus, MHB− (S. aureus; [5]): 32 μg of antimicrobial agent/mL of buffer; MIC, S. aureus, MHB+ (S. aureus; [6]): 16 μg of antimicrobial agent/mL of buffer; Fold, S. aureus (S. aureus; [8]): 2 |
| Teicoplanin |  |  |  | 128 μg of antimicrobial agent/mL of buffer | MIC, E. coli, MHB− (E. coli; [5]): 128 μg of antimicrobial agent/mL of buffer; Fold, E. coli (E. coli; [7]): 1; MIC, S. aureus, MHB− (S. aureus; [5]): 1 μg of antimicrobial agent/mL of buffer; MIC, S. aureus, MHB+ (S. aureus; [6]): 2 μg of antimicrobial agent/mL of buffer; Fold, S. aureus (S. aureus; [8]): −2 |
| NCC[C@H](O)C(=O)N[C@@H]1C[C@H](N)[C@@H](O[C@H]2O[C@H](CN)[C@@H](O)[C@H](O)[C@H]2O)[C@H](O)[C@H]1O[C@H]1O[C@H](CO)[C@@H](O)[C@H](N)[C@H]1O [Amikacin] |  | 8 μg of antimicrobial agent/mL of buffer | 4 µg/mL | 4 μg of antimicrobial agent/mL of buffer | MIC (E. coli; [2]): 4 µg/mL |
| CCn1cc(C(=O)O)c(=O)c2ccc(C)nc21 [Nalidixic acid] | 2 µg/mL | 32 | > 8 µg/mL |  | effect of 25 mM sodium bicarbonate on antibacterial activity (E. coli): suppressed |
| CCn1cc(C(=O)O)c(=O)c2cc(F)c(N3CCNCC3)cc21 [Norfloxacin] | 0.125 µg/mL | 1 | 0.5 µg/mL |  |  |
| CN[C@@H]1[C@@H](O[C@H]2O[C@H](CO)[C@@H](N)[C@H](O)[C@H]2O)OC2C[C@@H](N)[C@@H](O[C@H]3[C@H](O)[C@@H](O)[C@H](N)C[C@@H]3N)OC2[C@@H]1O (stereo partly shown) [Apramycin] | 32 µg/mL | 32 | 16 µg/mL |  |  |
| CC[C@H]1OC(=O)[C@H](C)[C@@H](O[C@H]2C[C@@](C)(OC)[C@@H](O)[C@H](C)O2)[C@H](C)[C@@H](O[C@@H]2O[C@H](C)C[C@H](N(C)C)[C@H]2O)[C@](C)(O)C[C@@H](C)[C@@H]2N[C@@H](COCCOC)O[C@H]([C@H]2C)[C@]1(C)O [Dirithromycin] | 128 µg/mL | 0.5 | 4 µg/mL |  | MIC (E. coli; E. coli, no salt, pH adjusted to 7.4, read-out: MIC of dirithromycin, control): 128 µg/mL |
| Hyaluronic acid |  |  |  |  | enhancement of antimicrobial activity in the presence of bicarbonate (E. coli): 64 fold; MIC in MHB (S. aureus; [9]): 4 µg/mL; MIC in MHB + 25 mM bicarbonate (S. aureus; [9]): 0.0625 µg/mL; enhancement of antimicrobial activity in the presence of bicarbonate (S. aureus; S. aureus, 25 mM sodium bicarbonate): 64 fold |
| Polyhexanide |  |  |  | 0.5 μg of antimicrobial agent/mL of buffer | Fold, E. coli (E. coli): 2; MIC, E. coli, MHB (E. coli): 1 μg of antimicrobial agent/mL of buffer; MIC, S. aureus, MHB (S. aureus; [3]): 0.5 μg of antimicrobial agent/mL of buffer; MIC, S. aureus, MHB+ (S. aureus; [4]): 0.25 μg of antimicrobial agent/mL of buffer; Fold, S. aureus (S. aureus; antiseptic agents): 2 |
